# Patent publication US12195427B2, “MASP-2 inhibitors and methods of use” (priority 2018, dated 2025)
# Target: MASP-2 CCP2-SP (Homo sapiens (Human), UniProt O00187)
# Test: MASP-2 co-crystallization, X-ray crystallography and structure analysis (H-bonds, van der Waals contacts);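 as to Ligand-pharmacophore element distance, pharmacophore element C2: distance from averaged pharmacophore element to bound ligand; missing value means element absent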;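 as to Ligand-pharmacophore element distance, pharmacophore element C3: distance from averaged pharmacophore element to bound ligand; missing value means element absent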;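 as to Ligand-pharmacophore element distance, pharmacophore element C4: distance from averaged pharmacophore element to bound ligand; missing value means element absent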;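 as to Ligand-pharmacophore element distance, pharmacophore element C5: distance from averaged pharmacophore element to bound ligand; missing value means element absent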
# Set-up: van der Waals contact distance, MASP-2 HIS 483 atom CD2 / van der Waals contact distance, MASP-2 HIS 483 atom NE2 / van der Waals contact distance, SER 654 C to compound atom / van der Waals contact distance, SER 654 O to compound atom / van der Waals contact distance, TRP 655 C to compound atom / van der Waals contact distance, MASP-2 GLY 528 atom CA / van der Waals contact distance TRP 655 atom CZ3 / van der Waals contact distance TRP 655 atom N / van der Waals contact distance TRP 655 atom CE3 / van der Waals contact distance GLY 656 atom C / van der Waals contact distance GLY 656 atom CA / van der Waals contact distance GLY 656 atom O / van der Waals contact distance, MASP-2 TYR 607 atom CD1 / van der Waals contact distance, MASP-2 PRO 606 atom O / d(C3,CA1) / d(CA1,N1)2 / d(H4,O1) / d(H4,O2) / d(O1,O2) / d(CA1,O2) / d(CA6,O1) / d(CA6,O2) / d(CA1,C5) / d(O2,H3) / d(N2,C2) / d(CA5,N2) / d(N2,C4) / d(N2,C6) / d(N2,CA3) / d(N2,O3) / d(O4,H2): unit not given beside the values
# Conditions: for Ligand-pharmacophore element distance, pharmacophore element C2 / Ligand-pharmacophore element distance, pharmacophore element C3 / Ligand-pharmacophore element distance, pharmacophore element C4 / Ligand-pharmacophore element distance, pharmacophore element C5 / Ligand-pharmacophore element distance, pharmacophore element C6 / Ligand-pharmacophore element distance, pharmacophore element C7 / Ligand-pharmacophore element distance, pharmacophore element CA1 / Ligand-pharmacophore element distance, pharmacophore element CA2 / Ligand-pharmacophore element distance, pharmacophore element CA3 / Ligand-pharmacophore element distance, pharmacophore element CA4 / Ligand-pharmacophore element distance, pharmacophore element CA5 / Ligand-pharmacophore element distance, pharmacophore element CA6: Table A4-1
# In short: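 Inhibitor complexes were obtained by soaking crystals of E. coli-expressed human MASP-2 CCP2-SP constructs, then flash-cooling in liquid nitrogen. Structures solved by molecular replacement (1Q3X search model) from synchrotron diffraction; where several poses existed, only one was analyzed, and nonbonded contacts listed can include H-bonds.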
# [1] = Table A5-1 pharmacophore: distance between elements, S2/S1 region
# [2] = Table A5-2 pharmacophore distance, S3/S4 region
# [3] = Table A7-1, between pharmacophore elements of the bound compound
# [4] = Table A7-2, between pharmacophore elements of the bound compound
# [5] = Table A8-6, nearest protein atom in cell to the left
# MASP-2 CCP2-SP, sequence (O00187 445-686): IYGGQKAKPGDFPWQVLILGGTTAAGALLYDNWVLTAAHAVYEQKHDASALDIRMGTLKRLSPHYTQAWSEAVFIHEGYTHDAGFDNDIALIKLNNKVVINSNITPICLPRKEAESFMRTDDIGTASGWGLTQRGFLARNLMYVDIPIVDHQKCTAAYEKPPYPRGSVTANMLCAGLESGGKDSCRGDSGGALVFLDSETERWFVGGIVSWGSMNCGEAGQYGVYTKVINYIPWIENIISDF
# MASP-2 CCP2-SP, sequence (O00187 364-432 partner): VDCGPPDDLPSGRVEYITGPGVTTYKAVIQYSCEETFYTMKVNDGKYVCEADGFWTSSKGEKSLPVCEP
smiles,measurement,setting,value
Cc1nc(N)ccc1CNC(=O)[C@H](C)NC(=O)[C@H]1C[C@H](Cc2ccccc2Br)CN1.O=C(O)C(F)(F)F.O=C(O)C(F)(F)F [1372_B],"Ligand-pharmacophore element distance, pharmacophore element C2",,0
same,"Ligand-pharmacophore element distance, pharmacophore element C3",,0.1
same,"Ligand-pharmacophore element distance, pharmacophore element C4",,0
same,"Ligand-pharmacophore element distance, pharmacophore element C5",,0
same,"Ligand-pharmacophore element distance, pharmacophore element C6",,1.46
same,"Ligand-pharmacophore element distance, pharmacophore element C7",,0
same,"Ligand-pharmacophore element distance, pharmacophore element CA1",,0.57
same,"Ligand-pharmacophore element distance, pharmacophore element CA2",,1.41
same,"Ligand-pharmacophore element distance, pharmacophore element CA3",,0
same,"Ligand-pharmacophore element distance, pharmacophore element CA4",,0
same,"Ligand-pharmacophore element distance, pharmacophore element CA5",,0
same,"Ligand-pharmacophore element distance, pharmacophore element CA6",,0
same,"d(C3,CA1)",[1],2.85
same,"d(CA1,N1)2",[1],1.38
same,"d(CA1,O1)",[1],4.37
same,"d(CA1,O2)",[1],4.00
same,"d(H4,O1)",[1],4.39
same,"d(H4,O2)",[1],3.91
same,"d(O1,O2)",[1],3.35
same,"d(N2,C6)",[2],5.56
same,"d(N2,CA2)",[2],6.02
same,"d(O2,H3)",[2],2.23
same,"d(O2,N2)",[2],2.63
same,"a(C3, CA1, O1)",Table A6-1 pharmacophore angle,149.88
same,"a(CA1, O1, O2)",Table A6-1 pharmacophore angle,107.52
same,"a(O1, O2, H4)",Table A6-1 pharmacophore angle,132.88
same,"a(N1, CA1, O1) b)","Table A6-1 pharmacophore angle, Methyl-amino-pyridine compounds",174.13
same,"a(O1, O2, H3)",Table A6-2 pharmacophore angle,139.74
same,"a(O1, O2, N2)",Table A6-2 pharmacophore angle,143.19
same,"a(O2, N2, C6)",Table A6-2 pharmacophore angle,115.79
same,"a(O2, N2, CA2)",Table A6-2 pharmacophore angle,157.88
same,"Pharmacophore torsion angle a(C3, CA1, O1, H4)",[3],25.77
same,"Pharmacophore torsion angle a(H4, O1, O2, H3)",[3],99.85
same,"Pharmacophore torsion angle a(H4, O1, O2, N2)",[3],139.62
same,"Pharmacophore torsion angle a(N1, CA1, O1, H4)",[3],4.96
same,"Pharmacophore torsion angle a(O1, H4, O2, CA1)",[3],−82.66
same,"Pharmacophore torsion angle a(O1, O2, N2, C6)",[4],141.41
same,"Pharmacophore torsion angle a(O1, O2, N2, CA2)",[4],109.73
C[C@H](NC(=O)[C@H]1C[C@@H](c2ccccc2)CCN1)C(=O)NCc1cc(Cl)ccc1O.Cl [1078_10],"Ligand-pharmacophore element distance, pharmacophore element C2",,0.49
same,"Ligand-pharmacophore element distance, pharmacophore element C3",,0
same,"Ligand-pharmacophore element distance, pharmacophore element C4",,0
same,"Ligand-pharmacophore element distance, pharmacophore element C5",,0.3
same,"Ligand-pharmacophore element distance, pharmacophore element C6",,0
same,"Ligand-pharmacophore element distance, pharmacophore element C7",,0
same,"Ligand-pharmacophore element distance, pharmacophore element CA1",,1.34
same,"Ligand-pharmacophore element distance, pharmacophore element CA2",,0.49
same,"Ligand-pharmacophore element distance, pharmacophore element CA3",,0
same,"Ligand-pharmacophore element distance, pharmacophore element CA4",,0
same,"Ligand-pharmacophore element distance, pharmacophore element CA5",,0
same,"Ligand-pharmacophore element distance, pharmacophore element CA6",,0
same,"d(CA1,C5)",[1],3.12
same,"d(CA1,O1)",[1],4.35
same,"d(CA1,O2)",[1],4.37
same,"d(CA1,O4)",[1],2.76
same,"d(H4,O1)",[1],3.11
same,"d(H4,O2)",[1],3.46
same,"d(O1,O2)",[1],2.72
same,"d(O4,H2)",[1],0.97
same,"d(N2,C2)",[2],1.48
same,"d(N2,CA2)",[2],5.72
same,"d(O2,H3)",[2],1.97
same,"d(O2,N2)",[2],2.74
same,"a(C5, CA1, O1)",Table A6-1 pharmacophore angle,160.63
same,"a(CA1, O1, O2)",Table A6-1 pharmacophore angle,108.49
same,"a(CA1, O4, H2)",Table A6-1 pharmacophore angle,127.01
same,"a(O1, CA1, O4)",Table A6-1 pharmacophore angle,71.55
same,"a(O1, O2, H4)",Table A6-1 pharmacophore angle,131.53
same,"a(O1, O2, H3)",Table A6-2 pharmacophore angle,146.00
same,"a(O1, O2, N2)",Table A6-2 pharmacophore angle,152.80
same,"a(O2, N2, C2)",Table A6-2 pharmacophore angle,131.78
same,"a(O2, N2, CA2)",Table A6-2 pharmacophore angle,156.19
same,"Pharmacophore torsion angle a(C5, CA1, O1, H4)",[3],−9.97
same,"Pharmacophore torsion angle a(H4, O1, O2, H3)",[3],−152.67
same,"Pharmacophore torsion angle a(H4, O1, O2, N2)",[3],−164.78
same,"Pharmacophore torsion angle a(O1, H4, O2, CA1)",[3],−84.11
same,"Pharmacophore torsion angle a(O1, O2, N2, C2)",[3],123.40
same,"Pharmacophore torsion angle a(O1, O2, N2, CA2)",[4],136.18
same,Pharmacophore protein distance to MET_658 (first MET_658 column),"Table A8-6, 6th residue column, nearest protein atom in cell to the left",3.04
same,Pharmacophore protein distance to MET_658 (second MET_658 column),"Table A8-6, 9th residue column, nearest protein atom in cell to the left",3.81
same,Pharmacophore protein distance to GLY_528,[5],3.40
same,Pharmacophore protein distance to PHE_529,[5],3.08
same,Pharmacophore protein distance to PRO_608,[5],3.66
same,Pharmacophore protein distance to SER_611,[5],2.78
same,Pharmacophore protein distance to TRP_655,"Table A8-6, pharmacophore elements C6, CA3, O3, H1, nearest protein atom in cell to the left",3.89
